Measurements published in PubChem BioAssay AID256 (DTP/NCI, 2004).
Several values for one entry are separate records, joined by “and”; a condition that tells them apart may be missing. Equal values may be shown once. Inconclusive results and toxic doses are left out. Non-standard residues stand in square brackets, D forms with d. Residues, ends and D or L forms follow the SMILES beside them. ξ: configuration not given here. *: point of attachment. Bz = O=C(c1ccccc1)*; Bn = c1ccc(C*)cc1; ξC = NC(CS)C(=O)O

Tested on: CD2F1 mice, L1210 leukemia ip, survival T/C
Assay: NCI In Vivo Anticancer Drug Screen. Data for tumor model L1210 Leukemia (intraperitoneal) in CD2F1 (CDF1) mice
Conditions: higher = longer survival
Method in brief: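 Vehicle-treated tumor-bearing mice served as controls (C) for compound-treated mice (T). Reported figure is T divided by C.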

[1] = endpoint: mean survival time, dose: 6.25 mg/kg/injection, schedule: Q01DX009 (ip), vehicle: saline with Tween-80
[2] = endpoint: mean survival time, dose: 12.5 mg/kg/injection, schedule: Q01DX009 (ip), vehicle: saline with Tween-80
[3] = endpoint: mean survival time, dose: 25.0 mg/kg/injection, schedule: Q01DX009 (ip), vehicle: saline with Tween-80
[4] = endpoint: mean survival time, dose: 50.0 mg/kg/injection, schedule: Q01DX009 (ip), vehicle: saline with Tween-80
[5] = endpoint: mean survival time, dose: 100.0 mg/kg/injection, schedule: Q01DX001 (ip), vehicle: saline with Tween-80
[6] = endpoint: mean survival time, dose: 200.0 mg/kg/injection, schedule: Q01DX001 (ip), vehicle: saline with Tween-80
[7] = endpoint: mean survival time, dose: 400.0 mg/kg/injection, schedule: Q01DX001 (ip), vehicle: saline with Tween-80
[8] = endpoint: mean survival time, dose: 100.0 mg/kg/injection, schedule: Q01DX009 (ip), vehicle: saline with Tween-80
[9] = endpoint: mean survival time, dose: 100.0 mg/kg/injection, schedule: Q04DX002 (ip), vehicle: saline with Tween-80
[10] = endpoint: mean survival time, dose: 200.0 mg/kg/injection, schedule: Q04DX002 (ip), vehicle: saline with Tween-80
[11] = endpoint: mean survival time, dose: 200.0 mg/kg/injection, schedule: Q01DX009 (ip), vehicle: saline with Tween-80
[12] = endpoint: mean survival time, dose: 100.0 mg/kg/injection, schedule: Q04DX003 (ip), vehicle: saline with Tween-80
[13] = endpoint: mean survival time, dose: 200.0 mg/kg/injection, schedule: Q04DX003 (ip), vehicle: saline with Tween-80
[14] = endpoint: mean survival time, dose: 400.0 mg/kg/injection, schedule: Q04DX003 (ip), vehicle: saline with Tween-80
[15] = endpoint: mean survival time, dose: 400.0 mg/kg/injection, schedule: Q01DX009 (ip), vehicle: saline with Tween-80

In the case of `N#Cc1[nH]nc2ncnc(N)c12`, the T/C [1] is reported as 100 % of control, the T/C [2] is reported as 100 % of control and the T/C [3] is reported as 93 % of control. For the same compound, the T/C [4] was 91 % of control and 98 % of control.

With `CC(C)c1ccc(-n2cnc3c(=O)[nH]c(N)nc32)cc1` the T/C [5] was 94 % of control, the T/C [6] was 94 % of control and the T/C [7] was 91 % of control.

For `CC(C)NC(=O)OCc1c(COC(=O)NC(C)C)c(-c2ccc(Cl)c(Cl)c2)n2c1CCC2`, the T/C (endpoint: mean survival time, dose: 6.25 mg/kg/injection, schedule: Q01DX009 (ip), vehicle: distilled water + Tween-80) was 115 % of control, the T/C [1] was 103 % of control and the T/C (endpoint: mean survival time, dose: 12.5 mg/kg/injection, schedule: Q01DX009 (ip), vehicle: distilled water + Tween-80) was 118 % of control. For the same compound, the T/C [2] was 116 % of control, the T/C [3] was 121 % of control and the T/C [8] was 89 % of control. The T/C (endpoint: median survival time, dose: 50.0 mg/kg/injection, schedule: Q01DX005 (ip), vehicle: saline with Tween-80) was 151 % of control, the T/C (endpoint: median survival time, dose: 100.0 mg/kg/injection, schedule: Q01DX005 (ip), vehicle: saline with Tween-80) was 179 % of control and the T/C (endpoint: median survival time, dose: 200.0 mg/kg/injection, schedule: Q01DX005 (ip), vehicle: saline with Tween-80) was 190 % of control. The T/C (endpoint: median survival time, dose: 800.0 mg/kg/injection, schedule: Q01DX005 (ip), vehicle: saline with Tween-80) was 102 % of control.

For `O=C(Nc1cccc(C(F)(F)F)c1)c1ccc(Cl)cc1`, the T/C [9] was 97 % of control, the T/C [10] was 105 % of control and the T/C (endpoint: mean survival time, dose: 400.0 mg/kg/injection, schedule: Q04DX002 (ip), vehicle: saline with Tween-80) was 105 % of control.

`O=C(Oc1ccccc1/C=C/[n+]1ccccc1)c1ccccc1` was tested, and the T/C [4] was 92 % of control, the T/C [8] was 100 % of control and the T/C [11] was 96 % of control.

`O=C(CNC(=O)Nc1cccc(C(F)(F)F)c1)NNC(=O)Nc1ccc(Cl)c([N+](=O)[O-])c1` was tested, and the T/C [8] was 89 % of control and the T/C [11] was 86 % of control.

For `Nc1ccc(S(=O)(=O)O)c2ccccc12`, the T/C (endpoint: mean survival time, dose: 50.0 mg/kg/injection, schedule: Q01DX009 (ip), vehicle: Klucel (hydroxypropylcellulose) (HPC)) was 86 % of control, the T/C (endpoint: mean survival time, dose: 100.0 mg/kg/injection, schedule: Q01DX009 (ip), vehicle: Klucel (hydroxypropylcellulose) (HPC)) was 104 % of control and the T/C (endpoint: mean survival time, dose: 100.0 mg/kg/injection, schedule: Q04DX003 (ip), vehicle: saline) was 97 % of control. For the same compound, the T/C (endpoint: mean survival time, dose: 200.0 mg/kg/injection, schedule: Q01DX009 (ip), vehicle: Klucel (hydroxypropylcellulose) (HPC)) was 104 % of control, the T/C (endpoint: mean survival time, dose: 200.0 mg/kg/injection, schedule: Q04DX003 (ip), vehicle: saline) was 101 % of control and the T/C (endpoint: mean survival time, dose: 400.0 mg/kg/injection, schedule: Q04DX003 (ip), vehicle: saline) was 103 % of control.

`O=C1OCSc2ccccc21` was tested, and the T/C (endpoint: mean survival time, dose: 25.0 mg/kg/injection, schedule: Q01DX009 (ip), vehicle: saline sonified) was 108 % of control, the T/C (endpoint: mean survival time, dose: 50.0 mg/kg/injection, schedule: Q01DX009 (ip), vehicle: saline sonified) was 102 % of control and the T/C (endpoint: mean survival time, dose: 100.0 mg/kg/injection, schedule: Q01DX009 (ip), vehicle: saline sonified) was 102 % of control. The T/C [12] was 100 % of control, the T/C [13] was 101 % of control and the T/C [14] was 97 % of control.

For `COC(=O)C(CSCc1ccccc1)NC(=O)CNC(=O)c1ccccc1` (configuration not stated) (Bz-Gly-[ξC](Bn)-OMe), the T/C [5] was 98 % of control, the T/C [8] was 91 % of control and the T/C [6] was 93 % of control. For the same compound, the T/C [11] was 94 % of control, the T/C [7] was 97 % of control and the T/C [15] was 91 % of control.

With `COC(=O)C1C2C=CC(C3CCC23)C1C(=O)OC` (configuration not stated) the T/C [8] was 100 % of control, the T/C [11] was 93 % of control and the T/C [15] was 91 % of control.

In the case of `Cc1nc2ccc(Cl)cc2n1C`, the T/C [4] is reported as 102 % of control, the T/C [8] is reported as 102 % of control and the T/C [11] is reported as 106 % of control.

In the case of `COc1ccc(C(C)=O)cc1[N+](=O)[O-]`, the T/C [8] is reported as 98 % of control, the T/C [12] is reported as 96 % of control and the T/C [11] is reported as 97 % of control. For the same compound, the T/C [13] was 102 % of control and the T/C [14] was 94 % of control.

For `CCC12C=CC(OC)(CC1)C(C#N)C2` (configuration not stated), the T/C (endpoint: mean survival time, dose: 50.0 mg/kg/injection, schedule: Q04DX002 (ip), vehicle: saline with Tween-80) was 103 % of control, the T/C [9] was 100 % of control and the T/C [10] was 91 % of control.
